The target of experiment [1] is T1, Recombinant cryAB(R120G) protein (Homo sapiens, UniProt P02511, R120G).
T1 sequence (P02511 1-175 R120G): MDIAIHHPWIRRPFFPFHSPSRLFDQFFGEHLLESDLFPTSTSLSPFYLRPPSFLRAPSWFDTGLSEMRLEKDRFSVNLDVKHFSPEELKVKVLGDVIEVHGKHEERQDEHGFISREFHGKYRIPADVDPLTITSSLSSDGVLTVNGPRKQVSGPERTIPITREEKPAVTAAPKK
The experiment is described as follows: Kinetic turbidity aggregation assay of recombinant cryAB(R120G). The experiment is classed as biochemical. In outline: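 Recombinant human cryAB R120G at 15 μM final in 50 mM Tris, 100 mM NaCl, 5 mM DTT, 0.01% Triton X-100, 0.05% PEG-8000 with 4% DMSO. Compounds added from 2-fold serial DMSO dilutions, run in quadruplicate; aggregation followed kinetically by turbidity.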

Experiment [2] addresses T2, Alpha-Crystallin Domain of alpha B crystallin containing the E117C mutation (Homo sapiens, UniProt P02511, E117C).
T2 construct: the Alpha-Crystallin Domain of alpha B crystallin containing the E117C mutation
T2 sequence (P02511 56-164 E117C limits assumed): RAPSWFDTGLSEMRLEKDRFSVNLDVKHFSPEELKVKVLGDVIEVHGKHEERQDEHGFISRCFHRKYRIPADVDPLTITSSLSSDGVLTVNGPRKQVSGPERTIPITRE
In words: CryAB binding assay (MicroScale Thermophoresis, direct binding). The settings on record: 100 nM Cy5-labeled protein, Tris buffer pH 8. The procedure: Example A-2: CryAB Binding Assay
Affinities were determined by MicroScale Thermophoresis using a direct binding assay. Briefly, the Alpha-Crystallin Domain of alpha B crystallin containing the E117C mutation was alkylated with a Cy5 dye and monitored for binding at 100 nM protein in Tris buffer pH 8, containing 0.1% PEG-8000, 0.05% Tween-20, and 5% DMSO. Binding assays were performed by titrating ligand against a mixture of the dye-labeled protein and monitoring fluorescence changes indicating binding. Based on observed fluorescence measurements for each compound titration a KD was calculated using the Law of Mass Action equation.
(In general: Microscale thermophoresis detects binding through changes in fluorescence in a small temperature gradient.)

One may read the inhibition as how much of the control response was suppressed. What is called IC50 is the concentration needed to halve the response being measured. The Kd is the concentration at which binding is half-saturated. A low value points to higher affinity. With `CCn1nc([C@@H](CNS(=O)(=O)c2ccc3cc[nH]c3c2)N2CCCC2)c2ccccc21` [Compound 91, (R)-N-(2-(1-ethyl-1H-indazol-3-yl)-2-(pyrrolidin-1-yl)ethyl)-1H-indole-6-sulfonamide], the inhibition at 25 µM in experiment [1] (25 μM compound, 15 μM cryAB(R120G), 42° C., absorbance at 550 nm, read-out: % Inhibition of Protein Aggregation, 25 μM cmpd) came out at 99%. Also, the inhibition at 100 µM in experiment [1] (100 μM compound, 15 μM cryAB(R120G), 42° C., absorbance at 550 nm, read-out: % Inhibition of Protein Aggregation, 100 μM cmpd) turned out to be 99.6%. In addition, the concentration for half-maximal inhibition (IC50) in experiment [1] (inhibition of cryAB(R120G) protein aggregation) is not above 10 µM. In addition, the Kd in experiment [2] is not above 10 µM.

The values are drawn from patent publication US12637425B2, “Compounds and formulations for treating ophthalmic diseases” (Visus Therapeutics, Inc., priority 2020, dated 2026).
